Results: the CheMixHub viscosity set

Assay: xn = mol fraction of the nth substance listed

CCC[N+](C)(C)C.O=S(=O)([N-]S(=O)(=O)C(F)(F)F)C(F)(F)F + CCC[N+]1(C)CCCC1.O=S(=O)([N-]S(=O)(=O)C(F)(F)F)C(F)(F)F
viscosity [mPa·s], 101.3 kPa
Details | x1 = 0.2 | x1 = 0.4 | x1 = 0.6 | x1 = 0.8
293.15 K | 78.4 | 81.2 | 88.3 | 93.6
298.15 K | 62.8 | 64.9 | – | 73.8
303.15 K | 51.1 | 52.5 | 56.3 | 59.2

CCC[N+](C)(C)C.O=S(=O)([N-]S(=O)(=O)C(F)(F)F)C(F)(F)F + CCC[N+]1(C)CCCCC1.O=S(=O)([N-]S(=O)(=O)C(F)(F)F)C(F)(F)F
101.3 kPa
Details | viscosity [mPa·s]
298.15 K, x1 = 0.8 | 88.1
303.15 K, x1 = 0.8 | 69.7
308.15 K, x1 = 0.2 | 78.3
308.15 K, x1 = 0.6 | 63.6
308.15 K, x1 = 0.8 | 56.2
313.15 K, x1 = 0.2 | 62.4
313.15 K, x1 = 0.4 | 56.9
313.15 K, x1 = 0.6 | 51.5
318.15 K, x1 = 0.2 | 50.5

C1CCC2=[NH+]CCCN2CC1.c1c[n-]cn1 + CCO
298.15 K, 100 kPa
Details | viscosity [mPa·s]
x1 = 0.0998 | 1.95
x1 = 0.1996 | 3.268
x1 = 0.2995 | 5.15
x1 = 0.3994 | 7.752
x1 = 0.4994 | 10.78
x1 = 0.5994 | 14.23
x1 = 0.6995 | 19.14
x1 = 0.7996 | 23.96
x1 = 0.8998 | 28.78

CC(=O)O + CCO
298.15 K, 101.33 kPa
Details | viscosity [mPa·s]
x2 = 0.0808 | 1.246
x2 = 0.2919 | 1.327
x2 = 0.3542 | 1.335
x2 = 0.5697 | 1.24
x2 = 0.6571 | 1.195
x2 = 0.75 | 1.15

CCC(=O)[O-].CC[NH+]1CCNCC1 + CCO
Details | viscosity [mPa·s]
298.15 K, 101 kPa, x2 = 0.3033 | 75.85

ClCCCl + CCO
viscosity [mPa·s], 101 kPa
Details | 303.15 K | 313.15 K | 323.15 K
x1 = 0.1495 | 0.842 | – | –
x1 = 0.3026 | 0.736 | – | –
x1 = 0.4507 | 0.681 | – | –
x1 = 0.6007 | 0.662 | – | –
x1 = 0.752 | 0.659 | – | –
x1 = 0.8706 | 0.659 | – | –
x2 = 0.064 | 0.6974 | 0.6126 | 0.5529
x2 = 0.1215 | 0.6779 | 0.5938 | 0.5336
x2 = 0.2295 | 0.6654 | 0.5787 | 0.512
x2 = 0.3279 | 0.6668 | 0.5767 | 0.5115
x2 = 0.3912 | 0.6702 | 0.5806 | 0.5107
x2 = 0.4726 | 0.6873 | 0.5896 | 0.5161
x2 = 0.5989 | 0.7253 | 0.6178 | 0.536
x2 = 0.752 | 0.7907 | 0.6671 | 0.5723
x2 = 0.8819 | 0.8746 | 0.7374 | 0.628

ClCCl + CCO
303.15 K, 101.3 kPa
Details | viscosity [mPa·s]
x2 = 0.0625 | 0.395
x2 = 0.1074 | 0.398
x2 = 0.1915 | 0.4103
x2 = 0.2935 | 0.4387
x2 = 0.4162 | 0.4914
x2 = 0.5331 | 0.5595
x2 = 0.6811 | 0.6721
x2 = 0.7823 | 0.767
x2 = 0.8482 | 0.8337
x2 = 0.9067 | 0.8949
x2 = 0.9571 | 0.9476

CC(=O)O + CCOC(C)=O
viscosity [mPa·s], 101 kPa
Details | 298.15 K | 313.15 K
x1 = 0.1049 | 0.459 | –
x1 = 0.207 | 0.4949 | –
x1 = 0.3037 | 0.5331 | –
x1 = 0.399 | 0.5762 | –
x1 = 0.4985 | 0.6289 | –
x1 = 0.5996 | 0.689 | –
x1 = 0.6988 | 0.7668 | –
x1 = 0.8011 | 0.859 | –
x1 = 0.8742 | 0.943 | –
x2 = 0.102 | 0.97 | 0.791
x2 = 0.2035 | 0.867 | 0.707
x2 = 0.3037 | 0.771 | 0.634
x2 = 0.4101 | 0.697 | 0.579
x2 = 0.4979 | 0.644 | 0.538
x2 = 0.6006 | 0.582 | 0.488
x2 = 0.6962 | 0.543 | 0.454
x2 = 0.7971 | 0.499 | 0.419
x2 = 0.9048 | 0.46 | 0.388

ClCCCl + CCOC(C)=O
303.15 K, 101.3 kPa
Details | viscosity [mPa·s]
x2 = 0.099 | 0.679
x2 = 0.2036 | 0.6354
x2 = 0.3005 | 0.602
x2 = 0.3976 | 0.5686
x2 = 0.4996 | 0.5353
x2 = 0.6025 | 0.5057
x2 = 0.6983 | 0.4784
x2 = 0.7998 | 0.4505
x2 = 0.9034 | 0.4236

C1CCC2=[NH+]CCCN2CC1.c1c[n-]cn1 + CN(C)C=O
298.15 K, 100 kPa
Details | viscosity [mPa·s]
x1 = 0.0998 | 1.496
x1 = 0.1996 | 2.353
x1 = 0.2995 | 3.64
x1 = 0.3994 | 5.34
x1 = 0.4994 | 7.345
x1 = 0.5994 | 10.26
x1 = 0.6995 | 14.27
x1 = 0.7996 | 19.37
x1 = 0.8998 | 25.32

CCCC[n+]1ccn(C)c1.N[C@@H](CCC(=O)O)C(=O)[O-] + CO
Details | viscosity [mPa·s]
313.15 K, 101 kPa, x1 = 0.7005 | 19.95

ClCCCl + CO
viscosity [mPa·s], 101 kPa
Details | x2 = 0.1568 | x2 = 0.2369 | x2 = 0.4217 | x2 = 0.5374 | x2 = 0.6221 | x2 = 0.6906 | x2 = 0.7982 | x2 = 0.8393 | x2 = 0.912
303.15 K | 0.6585 | 0.6407 | 0.6125 | 0.6032 | 0.5936 | 0.5824 | 0.5696 | 0.5617 | 0.5488
313.15 K | 0.5772 | 0.5596 | 0.5318 | 0.5227 | 0.5094 | 0.5005 | 0.4915 | 0.4852 | 0.4762
323.15 K | 0.5169 | 0.499 | 0.4709 | 0.4587 | 0.4506 | 0.4422 | 0.4323 | 0.4255 | 0.4199

ClCCl + CO
303.15 K, 101.3 kPa
Details | viscosity [mPa·s]
x1 = 0.0146 | 0.5071
x2 = 0.0752 | 0.3905
x2 = 0.1326 | 0.3907
x2 = 0.1509 | 0.3917
x2 = 0.2315 | 0.3988
x2 = 0.3029 | 0.4078
x2 = 0.374 | 0.42
x2 = 0.407 | 0.4262
x2 = 0.5161 | 0.4475
x2 = 0.6525 | 0.4738
x2 = 0.7656 | 0.4932
x2 = 0.8581 | 0.5043
x2 = 0.9182 | 0.5081
x2 = 0.9595 | 0.5087
